Tested on: BJAB cells
Test: BJAB cell proliferation (Cell Titer Glo)
Type: cell-based
Conditions: Homo sapiens, read-out: EC50
How it was run: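 EC50 values come from non-linear regression of luminescence (Cell Titer Glo), expressed relative to untreated wells. BJAB cells were incubated roughly 72 h at 37 °C with serial compound dilutions carrying 0.1% final DMSO.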

## Cc1nn(-c2nc(-c3ccc(C(F)(F)F)cc3)c(SC(C)C)s2)c(C(=O)O)c1-c1ccc(F)c(F)c1 [Compound 235, 4-(3,4-difluorophenyl)-1-(5-(isopropylthio)-4-(4-(trifluoromethyl)phenyl)thiazol-2-yl)-3-methyl-1H-pyrazole-5-carboxylic acid]
  EC50: < 1 µM

## Cc1cc(-c2c(C)nn(-c3nc(-c4ccc(C(F)(F)F)cc4)c(SC(C)C)s3)c2C(=O)O)ccc1F [Compound 236, 4-(4-fluoro-3-methylphenyl)-1-(5-(isopropylthio)-4-(4-(trifluoromethyl)phenyl)thiazol-2-yl)-3-methyl-1H-pyrazole-5-carboxylic Acid]
  EC50: 1 to 5 µM

## Cc1nn(-c2nc(-c3ccc(C(F)(F)F)cc3)c(SC(C)C)s2)c(C(=O)O)c1-c1ccc(F)cc1 [Compound 237, 4-(4-fluorophenyl)-1-(5-(isopropylthio)-4-(4-(trifluoromethyl)phenyl)thiazol-2-yl)-3-methyl-1H-pyrazole-5-carboxylic acid]
  EC50: 1 to 5 µM

## COc1cc(-c2c(C)nn(-c3nc(-c4ccc(C(F)(F)F)cc4)c(SC(C)C)s3)c2C(=O)O)ccc1F [Compound 238, 4-(4-fluoro-3-methoxyphenyl)-1-(5-(isopropylthio)-4-(4-(trifluoromethyl)phenyl)thiazol-2-yl)-3-methyl-1H-pyrazole-5-carboxylic acid]
  EC50: 1 to 5 µM

## Cc1cc(Cl)cc(C)c1-c1nc(-n2nc(C)c(-c3cccc(F)c3)c2C(=O)O)sc1SC(C)C [Compound 239, 1-(4-(4-chloro-2,6-dimethylphenyl)-5-(isopropylthio)thiazol-2-yl)-4-(3-fluorophenyl)-3-methyl-1H-pyrazole-5-carboxylic Acid]
  EC50: 5 to 10 µM

## Cc1nn(-c2nc(-c3ccc(C(C)(F)F)cc3)c(SC(C)C)s2)c(C(=O)O)c1-c1cccc(F)c1 [Compound 240, 1-(4-(4-(1,1-difluoroethyl)phenyl)-5-(isopropylthio)thiazol-2-yl)-4-(3-fluorophenyl)-3-methyl-1H-pyrazole-5-carboxylic acid]
  EC50: 1 to 5 µM

## Cc1cc(-c2c(C)nn(-c3nc(-c4ccc(C(F)(F)F)cc4)c(SC(C)C)s3)c2C(=O)O)cc(C)c1F [Compound 241, 4-(4-fluoro-3,5-dimethylphenyl)-1-(5-(isopropylthio)-4-(4-(trifluoromethyl)phenyl)thiazol-2-yl)-3-methyl-1H-pyrazole-5-carboxylic acid]
  EC50: < 1 µM

## Cc1nn(-c2nc(-c3cnc(C(F)(F)F)nc3)c(SC(C)C)s2)c(C(=O)O)c1-c1cccc(F)c1 [Compound 242, 4-(3-fluorophenyl)-1-(5-(isopropylthio)-4-(2-(trifluoromethyl)pyrimidin-5-yl)thiazol-2-yl)-3-methyl-1H-pyrazole-5-carboxylic Acid]
  EC50: 5 to 10 µM

## CCNC(=O)c1cc(-c2nc(-n3nc(C)c(-c4cccc(F)c4)c3C(=O)O)sc2SC(C)C)ccc1Cl [Compound 243, 1-(4-(4-chloro-3-(ethylcarbamoyl)phenyl)-5-(isopropylthio)thiazol-2-yl)-4-(3-fluorophenyl)-3-methyl-1H-pyrazole-5-carboxylic Acid]
  EC50: > 40 µM

## Cc1nn(-c2nc(-c3ccc(C(F)(F)F)cc3N)c(SC(C)C)s2)c(C(=O)O)c1-c1cccc(F)c1 [Compound 244, 1-(4-(2-amino-4-(trifluoromethyl)phenyl)-5-(isopropylthio)thiazol-2-yl)-4-(3-fluorophenyl)-3-methyl-1H-pyrazole-5-carboxylic Acid]
  EC50: 1 to 5 µM

## Cc1nn(-c2nc(C#Cc3ccc(C(F)(F)F)cc3)c(SC(C)C)s2)c(C(=O)O)c1-c1cccc(F)c1 [Compound 245, 4-(3-fluorophenyl)-1-(5-(isopropylthio)-4-((4-(trifluoromethyl)phenyl)ethynyl)thiazol-2-yl)-3-methyl-1H-pyrazole-5-carboxylic acid]
  EC50: 10 to 25 µM

## Cc1nn(-c2nc(-c3ncc(C(F)(F)F)cn3)c(SC(C)C)s2)c(C(=O)O)c1-c1cccc(F)c1 [Compound 246, 4-(3-fluorophenyl)-1-(5-(isopropylthio)-4-(5-(trifluoromethyl)pyrimidin-2-yl)thiazol-2-yl)-3-methyl-1H-pyrazole-5-carboxylic Acid]
  EC50: 10 to 25 µM

## Cc1nn(-c2nc(-c3ccc(C(F)(F)F)cc3)cs2)c(C(=O)O)c1-c1cccc(F)c1 [Compound 247, 4-(3-fluorophenyl)-3-methyl-1-(4-(4-(trifluoromethyl)phenyl)thiazol-2-yl)-1H-pyrazole-5-carboxylic acid]
  EC50: 10 to 25 µM

## COCCN(C)C(=O)c1c(-c2cccc(F)c2)c(C)nn1-c1nc(-c2ccc(C(F)(F)F)cc2)c(SC(C)C)s1 [Compound 248, 4-(3-fluorophenyl)-1-(5-(isopropylthio)-4-(4-(trifluoromethyl)phenyl)thiazol-2-yl)-N-(2-methoxyethyl)-N,3-dimethyl-1H-pyrazole-5-carboxamide]
  EC50: > 20 µM

## Cc1nn(-c2nc(-c3ccc(C(F)(F)F)cc3)c(SC(C)C)s2)c(C(=O)NCCOCCOCCOCCN=[N+]=[N-])c1-c1cccc(F)c1 [Compound 249, N-(2-(2-(2-(2-azidoethoxy)ethoxy)ethoxy)ethyl)-4-(3-fluorophenyl)-1-(5-(isopropylthio)-4-(4-(trifluoromethyl)phenyl)thiazol-2-yl)-3-methyl-1H-pyrazole-5-carboxamide]
  EC50: > 20 µM

## COCCNC(=O)c1c(-c2cccc(F)c2)c(C)nn1-c1nc(-c2ccc(C(F)(F)F)cc2)c(SC(C)C)s1 [Compound 250, 4-(3-fluorophenyl)-1-(5-(isopropylthio)-4-(4-(trifluoromethyl)phenyl)thiazol-2-yl)-N-(2-methoxyethyl)-3-methyl-1H-pyrazole-5-carboxamide]
  EC50: 10 to 25 µM

## CCCS(=O)(=O)NC(=O)c1c(-c2cccc(F)c2)c(C)nn1-c1nc(-c2ccc(C(F)(F)F)cc2)c(SC(C)C)s1 [Compound 251, 4-(3-fluorophenyl)-1-(5-(isopropylthio)-4-(4-(trifluoromethyl)phenyl)thiazol-2-yl)-3-methyl-N-(propylsulfonyl)-1H-pyrazole-5-carboxamide]
  EC50: > 20 µM

## Cc1nn(-c2nc(-c3ccccc3C(F)(F)F)c(SC(C)C)s2)c(C(=O)O)c1-c1cccc(F)c1 [Compound 252, 4-(3-fluorophenyl)-1-(5-(isopropylthio)-4-(2-(trifluoromethyl)phenyl)thiazol-2-yl)-3-methyl-1H-pyrazole-5-carboxylic acid]
  EC50: 10 to 25 µM

## Cc1nn(-c2nc(-c3cccc(C(F)(F)F)c3)c(SC(C)C)s2)c(C(=O)O)c1-c1cccc(F)c1 [Compound 253, 4-(3-fluorophenyl)-1-(5-(isopropylthio)-4-(3-(trifluoromethyl)phenyl)thiazol-2-yl)-3-methyl-1H-pyrazole-5-carboxylic acid]
  EC50: 5 to 10 µM

## Cc1nn(-c2nc(-c3ccc(C(F)(F)F)cc3)c(NC(C)C)s2)c(C(=O)O)c1-c1cccc(F)c1 [Compound 254, 4-(3-fluorophenyl)-1-(5-(isopropylamino)-4-(4-(trifluoromethyl)phenyl)thiazol-2-yl)-3-methyl-1H-pyrazole-5-carboxylic acid]
  EC50: 5 to 10 µM

## Cc1nn(-c2nc(-c3ccc(S(F)(F)(F)(F)F)cc3)c(SC(C)C)s2)c(C(=O)O)c1-c1cccc(F)c1 [Compound 255, 4-(3-fluorophenyl)-1-(5-(isopropylthio)-4-(4-(pentafluoro-λ^6-sulfaneyl)phenyl)thiazol-2-yl)-3-methyl-1H-pyrazole-5-carboxylic acid]
  EC50: < 1 µM

## CONC(=O)c1c(-c2cccc(F)c2)c(C)nn1-c1nc(-c2ccc(C(F)(F)F)cc2)c(SC(C)C)s1 [Compound 256, 4-(3-fluorophenyl)-1-(5-(isopropylthio)-4-(4-(trifluoromethyl)phenyl)thiazol-2-yl)-N-methoxy-3-methyl-1H-pyrazole-5-carboxamide]
  EC50: 10 to 25 µM

## Cc1nn(-c2nc(-c3ccc(CC(F)(F)F)cc3)c(SC(C)C)s2)c(C(=O)O)c1-c1cccc(F)c1 [Compound 257, 4-(3-fluorophenyl)-1-(5-(isopropylthio)-4-(4-(2,2,2-trifluoroethyl)phenyl)thiazol-2-yl)-3-methyl-1H-pyrazole-5-carboxylic acid]
  EC50: 1 to 5 µM

## Cc1nn(-c2nc(-c3ccc(C(F)(F)F)nc3)c(SC(C)C)s2)c(C(=O)O)c1-c1cccc(F)c1 [Compound 258, 4-(3-fluorophenyl)-1-(5-(isopropylthio)-4-(6-(trifluoromethyl)pyridin-3-yl)thiazol-2-yl)-3-methyl-1H-pyrazole-5-carboxylic acid]
  EC50: 1 to 5 µM

## Cc1nn(-c2nc(-c3cnn(CC(F)(F)F)c3)c(SC(C)C)s2)c(C(=O)O)c1-c1cccc(F)c1 [Compound 259, 4-(3-fluorophenyl)-1-(5-(isopropylthio)-4-(1-(2,2,2-trifluoroethyl)-1H-pyrazol-4-yl)thiazol-2-yl)-3-methyl-1H-pyrazole-5-carboxylic acid]
  EC50: 10 to 25 µM

From patent publication US10537558B2 (Bantam Pharmaceutical, LLC, priority 2015, dated 2020)
